Test results: patent publication US20230134760A1, “CAR AND NRF2 DUAL ACTIVATOR AGENTS FOR CYCLOPHOSPHAMIDE-BASED AND DOXORUBICIN-BASED TREATMENTS OF CANCER” (priority 2020, published 2023)

Assays:
[1] = tested on: CYP2B6; format: cell-based; conditions: human, hepatocytes
Procedure: HPH were obtained from BIOIVT (Baltimore, Md.) and seeded at 1.5×10^6 or 7.5×10^5 cells/well in 6- or 12-well collagen I-coated plates, while 24-well collagen I-coated plates were seeded at 3.75×10^5 cells/well as described previously. 24 hours after seeding, HPH were cultured cells were overlaid with 0.25 mg/mL Matrigel Corning, Corning, N.Y.) 24 h after seeding in serum-free William's E Medium (WEM) supplemented with ITS+(insulin, transferrin, and selenium, 100×; […] Millipore Sigma), 100 U/ml penicillin, and 100 μg/ml streptomycin (Pen-Strep; ThermoFisher Scientific, Waltham, Mass.), and 2 mM L-glutamine (Invitrogen, Carlsbad, Calif.). Overlaid HPH were treated with compounds in Complete WEM (CYP2B6 and CYP3A4 studies and coculture studies). After 24 h treatment, HPH, BT549, MDA-MB-231, and H9c2 cells were washed and a phenol-chloroform extraction was used to isolate total RNA with the TRIzol reagent (ThermoFisher, Rockford, Ill.). Reverse transcription was performed on extracted RNA (1 μg) to produce cDNA using the High Capacity cDNA Archive kit according to manufacturer's instructions (Applied Biosystems, Foster, Calif.). […] Quantification of expression changes was done by the 2^ΔΔCt method, normalizing to GAPDH as the housekeeping gene and determining the fold change compared to control values (n=3). […]

[2] = tested on: H9c2 cells; assay: Cell viability assay, DOX-induced toxicity in H9c2 cells; format: cell-based, rat
Procedure: H9c2 cells were seeded 0.8×10^5 in 24-well plates. Following cell attachment, a 2 h pre-treatment with vehicle control (0.1% DMSO), SFN (2.5 μM) or DL7076 (1 μM, 5 μM, or 10 μM) was done followed by doxorubicin (2.5 μM) exposure for 22 h. Co-culture cells were assembled and treated with cyclophosphamide and doxorubicin as indicated. A Cell Counting Kit-8 (Enzo) assay was carried out. Cell viability was described as a percent of vehicle control (0.1% DMSO). Cardiomyocyte, human iPSC-derived cardiomyocytes, and BT549 viability was determined with a 1 hr incubation of 6% CCK8 in WEM.

[3] = tested on: BT549 cells; assay: Multi-organ co-culture (BT549/HPH/H9c2), BT549 viability; format: cell-based; conditions: DL7076 10 μM
Procedure: Additionally, HPH were cultured in collagen-coated 6-well plates and pre-treated as described in the previous co-culture system. BT549 and H9c2 cells were plated on similar modified coverslips 0.8×10^5 cells and allowed to attach for 24 hours during hepatocyte pre-treatment. […] Following pre-treatment, BT549 coverslips were inserted adjacent to H9c2 coverslips over the sandwich cultured HPH as depicted in FIG. 43a. […] Both BT549 and H9c2 cells were harvested at indicated time points and assess for viability, apoptosis, and DNA damage as detailed further. H9c2 cells were seeded 0.8×10^5 in 24-well plates. […] A Cell Counting Kit-8 (Enzo) assay was carried out. Cell viability was described as a percent of vehicle control (0.1% DMSO).

[4] = tested on: HPH/BT549 coculture; assay: LC-MS/MS determination of 4-OH-CPA formation in HPH/BT549 coculture medium; format: cell-based, human; conditions: DL7076 10 μM
Procedure: During the pre-treatment time, BT549 cells were seeded at 0.8×10^5 on collagen-coated coverslips modified to have their corners bent (FIG. 40a). […] 200 μL of cell culture medium was removed from each treatment group was immediately mixed with 20 μL of semicarbazide (SCZ; 2M) to stabilize 4-OH-CPA to its derivative 4-OH-CPA-SCZ. Once removed, samples were vortexed and left at room temperature for 10 minutes. 2 μM HMP was added as an internal standard and 200 μL acetonitrile was used to precipitate protein. Mass transitions were monitored at m/z: 261-140 for CPA, m/z: 334-221 for 4-OH-CPA-SCZ, and m/z: 180-135 for HMP under the positive multiple reaction monitoring mode.

[5] = tested on: MDA-MB-231 cells; assay: Cell viability assay, DOX-induced toxicity in MDA-MB-231 cells; format: cell-based; conditions: MDA-MB-231, DOX 2.5 μM
Procedure: Immortalized triple negative breast cancer cell lines MDA-MB-231 and BT549 were obtained from ATCC (Rockville, Md.). Additionally, the h9c2 cell line was purchased from ATCC (Rockville, Md.). […] Human iPSC-derived cardiomyocytes were maintained in Mtesr plus and supplemented according to protocol. These cells were treated for 2 hrs or an overnight as indicated. Following a 2 hr pretreatment, cells were co-treated with DOX at indicated concentrations for 6 or 22 hours. Following the overnight treatments, RNA or protein was isolated. HPH were seeded in collagen-coated 24 well plates and pretreated for 24 hrs. BT549 were seeded on inverted coverslips. After a 24 hr pretreatment, hepatocytes were co-administered as indicated and coverslips were inserted. The cell lines were used for less than 60 passages. H9c2 cells were seeded 0.8×10^5 in 24-well plates. […] A Cell Counting Kit-8 (Enzo) assay was carried out. Cell viability was described as a percent of vehicle control (0.1% DMSO).

O=C(NCCN=C=S)c1c(-c2ccc3ccccc3c2)nc2sccn12 [DL7076, N-(2-Isothiocyanatoethyl)-6-(naphthalen-2-yl)imidazo[2,1-b]thiazole-5-carboxamide]
CYP2B6 protein induction [1]: clear preferential induction of CYP2B6 | cytotoxicity without DOX ([2]; H9c2, 1, 5, 10 μM): no cytotoxicity | reversal of DOX-induced cardiotoxicity (viability) ([2]; H9c2, 2 h pretreatment, 22 h cotreatment with DOX 2.5 μM): concentration dependent reversal in the DOX-induced cardiotoxicity | CPA/DOX cytotoxicity in BT549 cells [3]: selectively enhanced CPA/DOX regimen cytotoxicity in BT549 cells | rate and extent of CPA biotransformation to 4-OH-CPA ([4]; coculture medium): increased rate and extent of CPA biotransformed | 4-OH-CPA formation ([4]; fixed CPA 500 μM, 2 to 24 hours): enhanced 4-OH-CPA formation in the coculture medium at all time points | reversal of DOX-induced toxicity (viability) [5]: this efficient reversal was not shown
